Measured values from ChEMBL document CHEMBL1201862, “PubChem BioAssay data set” (2004).
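Tested at 5 concentrations; 48 h exposure; 96-well plates; endpoints linearly interpolated, else capped at highest concentration. GI50: concentration for 50% inhibition of growth.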 The source made the active and inactive calls. Rule as the data show it: active = GI50 up to about 1.1 µM and inactive = higher.

Legend:
Assay in all cases: DTP human tumour cell line panel, 48 h
786-0 = tested on: 786-0
A549 = tested on: A549
ACHN = tested on: ACHN
BT-549 = tested on: BT-549
CAKI-1 = tested on: CAKI-1
CCRF-CEM = tested on: CCRF-CEM
COLO 205 = tested on: COLO 205
DU-145 = tested on: DU-145
EKVX = tested on: EKVX
HCC 2998 = tested on: HCC 2998
HCT-116 = tested on: HCT-116
HCT-15 = tested on: HCT-15
HL-60 = tested on: HL-60
HOP-62 = tested on: HOP-62
HOP-92 = tested on: HOP-92
HT-29 = tested on: HT-29
Hs-578T = tested on: Hs-578T
IGROV-1 = tested on: IGROV-1
K562 = tested on: K562
KM12 = tested on: KM12
LOX IMVI = tested on: LOX IMVI
M14 = tested on: M14
MCF7 = tested on: MCF7
MDA-MB-231 = tested on: MDA-MB-231
MDA-MB-435 = tested on: MDA-MB-435
MDA-N = tested on: MDA-N
MOLT-4 = tested on: MOLT-4
Malme-3M = tested on: Malme-3M
NCI-H226 = tested on: NCI-H226
NCI-H23 = tested on: NCI-H23
NCI-H460 = tested on: NCI-H460
NCI/ADR-RES = tested on: NCI/ADR-RES
OVCAR-3 = tested on: OVCAR-3
OVCAR-4 = tested on: OVCAR-4
OVCAR-5 = tested on: OVCAR-5
OVCAR-8 = tested on: OVCAR-8
PC-3 = tested on: PC-3
RPMI-8226 = tested on: RPMI-8226
RXF 393 = tested on: RXF 393
SF-268 = tested on: SF-268
SF-295 = tested on: SF-295
SF-539 = tested on: SF-539
SK-MEL-28 = tested on: SK-MEL-28
SK-MEL-2 = tested on: SK-MEL-2
SK-MEL-5 = tested on: SK-MEL-5
SN12C = tested on: SN12C
SNB-19 = tested on: SNB-19
SNB-75 = tested on: SNB-75
SR = tested on: SR
SW-620 = tested on: SW-620
T47D = tested on: T47D
TK-10 = tested on: TK-10
UACC-257 = tested on: UACC-257
UACC-62 = tested on: UACC-62
UO-31 = tested on: UO-31
A498 = tested on: A498
NCI-H522 = tested on: NCI-H522
SK-OV-3 = tested on: SK-OV-3
U-251 = tested on: U-251

C=C1CN(C2=NCCO2)C1
GI50 (786-0): > 100 µM (inactive) | GI50 (A549): > 100 µM (inactive) | GI50 (ACHN): > 100 µM (inactive) | GI50 (BT-549): > 100 µM (inactive) | GI50 (CAKI-1): > 100 µM (inactive) | GI50 (CCRF-CEM): > 100 µM (inactive) | GI50 (COLO 205): > 100 µM (inactive) | GI50 (DU-145): > 100 µM (inactive) | GI50 (EKVX): > 100 µM (inactive) | GI50 (HCC 2998): > 100 µM (inactive) | GI50 (HCT-116): > 100 µM (inactive) | GI50 (HCT-15): > 100 µM | GI50 (HL-60): > 100 µM (inactive) | GI50 (HOP-62): > 100 µM (inactive) | GI50 (HOP-92): > 100 µM (inactive) | GI50 (HT-29): > 100 µM (inactive) | GI50 (Hs-578T): > 100 µM (inactive) | GI50 (IGROV-1): > 100 µM (inactive) | GI50 (K562): > 100 µM (inactive) | GI50 (KM12): > 100 µM (inactive) | GI50 (LOX IMVI): > 100 µM (inactive) | GI50 (M14): > 100 µM (inactive) | GI50 (MCF7): > 100 µM (inactive) | GI50 (MDA-MB-231): > 100 µM (inactive) | GI50 (MDA-MB-435): > 100 µM (inactive) | GI50 (MDA-N): > 100 µM (inactive) | GI50 (MOLT-4): > 100 µM (inactive) | GI50 (Malme-3M): > 100 µM (inactive) | GI50 (NCI-H226): > 100 µM (inactive) | GI50 (NCI-H23): > 100 µM (inactive) | GI50 (NCI-H460): > 100 µM (inactive) | GI50 (NCI/ADR-RES): > 100 µM (inactive) | GI50 (OVCAR-3): > 100 µM (inactive) | GI50 (OVCAR-4): > 100 µM (inactive) | GI50 (OVCAR-5): > 100 µM (inactive) | GI50 (OVCAR-8): > 100 µM (inactive) | GI50 (PC-3): > 100 µM (inactive) | GI50 (RPMI-8226): > 100 µM (inactive) | GI50 (RXF 393): > 100 µM (inactive) | GI50 (SF-268): > 100 µM (inactive) | GI50 (SF-295): > 100 µM (inactive) | GI50 (SF-539): > 100 µM (inactive) | GI50 (SK-MEL-28): > 100 µM (inactive) | GI50 (SK-MEL-2): > 100 µM (inactive) | GI50 (SK-MEL-5): > 100 µM (inactive) | GI50 (SN12C): > 100 µM (inactive) | GI50 (SNB-19): > 100 µM (inactive) | GI50 (SNB-75): > 100 µM (inactive) | GI50 (SR): > 100 µM (inactive) | GI50 (SW-620): > 100 µM (inactive) | GI50 (T47D): > 100 µM (inactive) | GI50 (TK-10): > 100 µM (inactive) | GI50 (UACC-257): > 100 µM (inactive) | GI50 (UACC-62): > 100 µM (inactive) | GI50 (UO-31): > 100 µM (inactive)

CCCCSC1=N/C(=C\c2ccccc2O)C(Cl)=N1
GI50 (786-0): > 100 µM (inactive) | GI50 (A498): > 100 µM (inactive) | GI50 (A549): > 100 µM (inactive) | GI50 (ACHN): > 100 µM (inactive) | GI50 (BT-549): > 100 µM (inactive) | GI50 (CAKI-1): > 100 µM (inactive) | GI50 (COLO 205): > 100 µM (inactive) | GI50 (DU-145): > 100 µM (inactive) | GI50 (EKVX): > 100 µM (inactive) | GI50 (HCC 2998): > 100 µM (inactive) | GI50 (HCT-116): > 100 µM (inactive) | GI50 (HCT-15): > 100 µM | GI50 (HL-60): > 100 µM (inactive) | GI50 (HOP-62): > 100 µM (inactive) | GI50 (HOP-92): > 100 µM (inactive) | GI50 (HT-29): > 100 µM (inactive) | GI50 (Hs-578T): > 100 µM (inactive) | GI50 (IGROV-1): > 100 µM (inactive) | GI50 (KM12): > 100 µM (inactive) | GI50 (LOX IMVI): > 100 µM (inactive) | GI50 (M14): > 100 µM (inactive) | GI50 (MCF7): > 100 µM (inactive) | GI50 (MDA-MB-231): > 100 µM (inactive) | GI50 (MDA-MB-435): > 100 µM (inactive) | GI50 (MDA-N): > 100 µM (inactive) | GI50 (MOLT-4): > 100 µM (inactive) | GI50 (Malme-3M): > 100 µM (inactive) | GI50 (NCI-H226): > 100 µM (inactive) | GI50 (NCI-H23): > 100 µM (inactive) | GI50 (NCI-H460): > 100 µM (inactive) | GI50 (NCI-H522): > 100 µM (inactive) | GI50 (NCI/ADR-RES): > 100 µM (inactive) | GI50 (OVCAR-3): > 100 µM (inactive) | GI50 (OVCAR-4): > 100 µM (inactive) | GI50 (OVCAR-5): > 100 µM (inactive) | GI50 (OVCAR-8): > 100 µM (inactive) | GI50 (PC-3): > 100 µM (inactive) | GI50 (RPMI-8226): > 100 µM (inactive) | GI50 (RXF 393): > 100 µM (inactive) | GI50 (SF-268): > 100 µM (inactive) | GI50 (SF-295): > 100 µM (inactive) | GI50 (SF-539): > 100 µM (inactive) | GI50 (SK-MEL-28): > 100 µM (inactive) | GI50 (SK-MEL-2): > 100 µM (inactive) | GI50 (SK-OV-3): > 100 µM (inactive) | GI50 (SN12C): > 100 µM (inactive) | GI50 (SNB-19): > 100 µM (inactive) | GI50 (SNB-75): > 100 µM (inactive) | GI50 (SW-620): > 100 µM (inactive) | GI50 (T47D): > 100 µM (inactive) | GI50 (TK-10): > 100 µM (inactive) | GI50 (U-251): > 100 µM (inactive) | GI50 (UACC-257): > 100 µM (inactive) | GI50 (UACC-62): > 100 µM (inactive) | GI50 (UO-31): > 100 µM (inactive)

CN(CCCCN(C)CCc1ccc(Cl)c(Cl)c1)CCCCN1CCCC1
GI50 (786-0): 1.25 µM (inactive) | GI50 (A498): 1.72 µM (inactive) | GI50 (A549): 1.65 µM (inactive) | GI50 (ACHN): 1.91 µM (inactive) | GI50 (BT-549): 1.87 µM (inactive) | GI50 (CAKI-1): 1.6 µM (inactive) | GI50 (CCRF-CEM): < 0.0235 µM (active) | GI50 (COLO 205): 1.29 µM (inactive) | GI50 (DU-145): 2.73 µM (inactive) | GI50 (EKVX): 1.63 µM (inactive) | GI50 (HCC 2998): 0.195 µM (active) | GI50 (HCT-116): 1.51 µM (inactive) | GI50 (HCT-15): 1.69 µM | GI50 (HL-60): 1.49 µM (inactive) | GI50 (HOP-62): 1.83 µM (inactive) | GI50 (HOP-92): 1.26 µM (inactive) | GI50 (HT-29): 0.494 µM (active) | GI50 (Hs-578T): 0.977 µM (active) | GI50 (IGROV-1): 2.2 µM (inactive) | GI50 (K562): 0.877 µM (active) | GI50 (KM12): 0.705 µM (active) | GI50 (LOX IMVI): 0.912 µM (active) | GI50 (M14): 0.787 µM (active) | GI50 (MCF7): 1.46 µM (inactive) | GI50 (MDA-MB-231): 0.75 µM (active) | GI50 (MDA-MB-435): 0.465 µM (active) | GI50 (MDA-N): 1.26 µM (inactive) | GI50 (MOLT-4): 3.08 µM (inactive) | GI50 (Malme-3M): 1.91 µM (inactive) | GI50 (NCI-H226): 2.26 µM (inactive) | GI50 (NCI-H23): 1.71 µM (inactive) | GI50 (NCI-H460): 1.48 µM (inactive) | GI50 (NCI-H522): 0.977 µM (active) | GI50 (NCI/ADR-RES): 3.23 µM (inactive) | GI50 (OVCAR-3): 2.05 µM (inactive) | GI50 (OVCAR-4): 1.83 µM (inactive) | GI50 (OVCAR-5): 2.36 µM (inactive) | GI50 (OVCAR-8): 2.09 µM (inactive) | GI50 (PC-3): 1.57 µM (inactive) | GI50 (RPMI-8226): 0.649 µM (active) | GI50 (RXF 393): 1.32 µM (inactive) | GI50 (SF-268): 1.46 µM (inactive) | GI50 (SF-295): 1.83 µM (inactive) | GI50 (SF-539): 1.01 µM (active) | GI50 (SK-MEL-28): 0.533 µM (active) | GI50 (SK-MEL-2): 1.63 µM (inactive) | GI50 (SK-MEL-5): 0.902 µM (active) | GI50 (SK-OV-3): 2.18 µM (inactive) | GI50 (SN12C): 1.98 µM (inactive) | GI50 (SNB-19): 2.26 µM (inactive) | GI50 (SNB-75): 1.73 µM (inactive) | GI50 (SW-620): 1.21 µM (inactive) | GI50 (T47D): 2 µM (inactive) | GI50 (TK-10): 1.61 µM (inactive) | GI50 (U-251): 0.745 µM (active) | GI50 (UACC-257): 1.63 µM (inactive) | GI50 (UACC-62): 1.93 µM (inactive) | GI50 (UO-31): 0.509 µM (active)
